Experiment: excess molar enthalpy (molar enthalpy of mixing); xn = mol fraction of the nth substance listed
Settings: 101.3 kPa, Liquid, Isothermal microcalorimeter

CCOC(=O)CC(=O)OCC [diethyl 1,3-propanedioate] + CCCCCCC
excess molar enthalpy [kcal/mol]
Settings	288.15 K	298.15 K	313.15 K	328.15 K	338.15 K	348.15 K
x1 = 0.0503	–	–	–	0.0896	0.0877	0.0903
x1 = 0.0581	0.105	0.1	0.103	–	–	–
x1 = 0.1008	–	0.171	0.171	0.179	0.174	0.174
x1 = 0.1086	0.179	–	–	–	–	–
x1 = 0.1476	0.2254	0.232	0.238	0.2433	0.247	0.2424
x1 = 0.1984	0.2751	0.2921	0.3059	0.3133	0.3143	0.3074
x1 = 0.2495	0.3131	0.348	0.3619	0.3748	0.37	0.3647
x1 = 0.3007	0.3537	0.3867	0.413	0.4221	0.4283	0.4125
x1 = 0.3481	0.3659	0.4142	0.4436	0.4587	0.4529	0.4517
x1 = 0.3997	0.3786	0.4269	0.4622	0.4828	0.4842	0.4742
x1 = 0.4474	0.381	0.4338	0.4689	0.4883	0.4943	0.4876
x1 = 0.4993	0.3826	0.4348	0.472	0.4897	0.4971	0.4912
x1 = 0.5474	0.3815	0.4326	0.4656	0.4837	0.4909	0.4811
x1 = 0.5997	0.3755	0.4202	0.4515	0.467	0.478	0.4622
x1 = 0.6481	0.3626	0.4054	0.4331	0.4431	0.4503	0.4398
x1 = 0.7008	0.3466	0.374	0.3991	0.4128	0.4149	0.3999
x1 = 0.7495	0.3231	0.3446	0.3576	0.3693	0.3678	0.3609
x1 = 0.7985	0.2868	0.3002	0.3011	0.3222	0.3181	0.3105
x1 = 0.8476	0.237	0.2443	0.2459	0.254	0.257	0.246
x1 = 0.9009	0.167	0.167	0.165	0.18	0.178	0.17
x1 = 0.9504	0.0887	0.0891	0.0887	0.104	0.0939	0.0875

CCOC(=O)CC(=O)OCC [diethyl 1,3-propanedioate] + CCOC(C)=O
excess molar enthalpy [kcal/mol]
Settings	288.19 K	298.15 K	313.15 K	328.15 K	338.15 K	348.15 K
x1 = 0.0504	-0.000239	-0.000478	-0.000956	-0.00143	-0.00167	-0.00239
x1 = 0.1008	-0.000239	-0.000717	-0.00143	-0.00239	-0.00335	-0.00406
x1 = 0.148	-0.000478	-0.000956	-0.00191	-0.00335	-0.0043	-0.0055
x1 = 0.2007	-0.000478	-0.0012	-0.00239	-0.00406	-0.00526	-0.00645
x1 = 0.2496	-0.000478	-0.00143	-0.00263	-0.00454	-0.00598	-0.00741
x1 = 0.2974	-0.000478	-0.00143	-0.00287	-0.00478	-0.00621	-0.00789
x1 = 0.3475	-0.000478	-0.00143	-0.00287	-0.00502	-0.00669	-0.00813
x1 = 0.4	-0.000478	-0.00143	-0.00287	-0.00502	-0.00669	-0.00837
x1 = 0.447	-0.000478	-0.00143	-0.00287	-0.00502	-0.00669	-0.00813
x1 = 0.5003	-0.000478	-0.0012	-0.00287	-0.00478	-0.00645	-0.00789
x1 = 0.5474	-0.000478	-0.0012	-0.00263	-0.00454	-0.00621	-0.00765
x1 = 0.601	-0.000239	-0.000956	-0.00239	-0.0043	-0.00574	-0.00717
x1 = 0.6476	-0.000239	-0.000956	-0.00215	-0.00406	-0.00526	-0.00645
x1 = 0.7009	-0.000239	-0.000717	-0.00191	-0.00359	-0.00454	-0.00574
x1 = 0.7514	0	-0.000717	-0.00167	-0.00311	-0.00406	-0.00502
x1 = 0.7986	0	-0.000478	-0.00143	-0.00239	-0.00335	-0.00406
x1 = 0.8476	0	-0.000239	-0.000956	-0.00191	-0.00239	-0.00311
x1 = 0.8985	0	0	-0.000717	-0.00143	-0.00167	-0.00215
x1 = 0.9513	0.000239	0.000239	-0.000239	-0.000717	-0.000717	-0.000956

From the NIST ThermoML archive (doi:10.1016/j.fluid.2009.11.030)
